Read-outs that look alike come from different tables or passages of the source. Marks after values point to notes of the source that are not given here.
Assays:
[1] = system: Phytophthora infestans; type: in vivo; details: tomato, preventive spray, 100 ppm of active ingredient, evaluated 7 days after inoculation
[2] = system: Plasmopara viticola; test: Plasmopara test (grapevines)/preventive; type: in vivo; details: preventive spray, 10 ppm of active ingredient, evaluated 6 days after inoculation
In short: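 Young grapevines sprayed preventively with compound formulated in acetone/dimethylacetamide with emulsifier, diluted in water, then inoculated with P. viticola spores after drying. Held 1 day at ~20 °C/100% RH, 4 days in greenhouse at ~21 °C/~90% RH, then misted for 1 day. Efficacy scored 6 days post-inoculation (0% = untreated control, 100% = no disease).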

[3] = system: Pythium aphanidermatum; test: Pythium test (cucumber)/seed treatment; type: in vivo; details: 10 g/dt seed of active ingredient, emerged seedlings after 7 days
Description: (§1) The test is performed under greenhouse conditions.
Cucumber seeds, treated with the active compound or compound combinations, solved in N-methyl-2-pyrrolidon and diluted with water to the desired dosages, were sown in 6*6 cm pots containing 4 cm of a 1:1 mix of steamed field soil and sand.
Perlite was incubated with mycelium fragments of Pythium aphanidermatum. 5 ml of infected perlite was scattered between the treated […] seeds. Seeds were then covered by the 1:1 mix of steamed field soil and sand. Pots were incubated in the greenhouse 7 days at 24° C. and 80% relative humidity. Assessment consisted of counting of emerged seedlings. 0% means an efficacy which corresponds to that of the control, while an efficacy of 100% means that all seedlings have emerged.

[4] = system: Pythium ultimum; test: Pythium test (cotton)/seed treatment; type: in vivo; details: 10 g/dt seed of active ingredient, emerged seedlings after 7 days
Description: as §1
Cotton seeds, treated with the active compound or compound combinations, solved in N-methyl-2-pyrrolidon and diluted with water to the desired dosages, were sown in 6*6 cm pots containing 4 cm of a 1:1 mix of steamed field soil and sand.
Perlite was incubated with mycelium fragments of Pythium ultimum. 1 ml of infected perlite was scattered between the treated cotton seeds. Seeds were then covered by light expanded clay aggregate. Pots were incubated in the greenhouse 7 days at 20° C. and 80% relative humidity.
(§2) Assessment consisted of counting of emerged seedlings. 0% means an efficacy which corresponds to that of the control, while an efficacy of 100% means that all seedlings have emerged.

[5] = system: Pythium irregulare; test: Pythium test (corn)/seed treatment; type: in vivo; details: 10 g/dt seed of active ingredient, emerged seedlings after 7 days at 10° C. then 14 days at 20° C.
Description: as §1
Corn seeds, treated with the active compound or compound combinations, solved in N-methyl-2-pyrrolidon and diluted with water to the desired dosages, were sown in 6*6 cm pots containing 4 cm of a 1:1 mix of steamed field soil and sand.
Perlite was incubated with mycelium fragments of Pythium irregulare. 5 ml of infected perlite was scattered between the treated cotton seeds. Seeds were than covered by the 1:1 mix of steamed field soil and sand. Pots were incubated in the greenhouse 7 days at 10° C. and 80% relative humidity and then 14 days at 20° C. and 80% relative humidity.
as §2

[6] = pH 2.7
[7] = system: Phytophthora infestans; type: in vivo; details: tomato plants, spray, 500 ppm, grading 5 days after contamination
[8] = system: Alternaria brassicae; test: In vivo test on Alternaria brassicae (leaf spot of crucifers); details: radish plants, spray, 500 ppm, grading 6 to 7 days after contamination
Description: (§3) The active ingredients tested are prepared by homogenization in a mixture of acetone/tween/DMSO, then diluted with water to obtain the desired active material.
Radish plants (Pernot variety), sown on a 50/50 peat soil-pozzolana substrate in starter cups and grown at 18-20° C., are treated at the cotyledon stage by spraying with the active ingredient prepared as described above.
Plants, used as controls, are treated with the mixture of acetone/tween/water not containing the active material.
After 24 hours, the plants are contaminated by spraying them with an aqueous suspension of Alternaria brassicae spores (40,000 spores per cm^3). The spores are collected from a 12 to 13 days-old culture.
The contaminated radish plants are incubated for 6-7 days at about 18° C., under a humid atmosphere.
Grading is carried out 6 to 7 days after the contamination, in comparison with the control plants.
Under these conditions, good protection (at least 70%) is observed at a dose of 500 ppm with the following compounds: […]

[9] = system: Botrytis cinerea; test: In vivo test on Botrytis cinerea (grey mould); details: gherkin plants, spray, 500 ppm, grading 4/5 days after contamination
Description: The active ingredients tested are prepared by homogenization in a mixture of acetone/Tween/DMSO, then diluted with water to obtain the desired active material
Gherkin plants (Vert petit de Paris variety), sown on a 50/50 peat soil-pozzolana substrate in starter cups and grown at 18-20° C., are treated at the cotyledon Z11 stage by spraying with the active ingredient prepared as described above.
Plants, used as controls, are treated with an aqueous solution not containing the active material. After 24 hours, the plants are contaminated by spraying them with an aqueous suspension of cryopreserved Botrytis cinerea spores (50.000 spores per ml) on upper surface of the leaves. The spores are suspended in a nutrient solution composed of: • 10 g/L of PDB; • 50 g/L of D-fructose; • 2 g/L of NH4NO3; • 1 g/L of KH2PO4.
The contaminated cucumber plants are settled for 4/5 days in a climatic room at 17° C. (day/night) and at 80% relative humidity.
Grading is carried out 4/5 days after the contamination, in comparison with the control plants.
(§4) Under these conditions, good (at least 70%) or total protection is observed at a dose of 500 ppm with the following compounds: […]

[10] = system: Pyrenophora teres; test: In vivo test on Pyrenophora teres (barley net blotch); details: barley plants, spray, 500 ppm, grading 12 days after contamination
Description: The active ingredients tested are prepared by homogenization in a mixture of acetone/Tween/DMSO, then diluted with water to obtain the desired active material concentration.
Barley plants (Plaisant variety), sown on a 50/50 peat soil-pozzolana substrate in starter cups and grown at 22° C. (12 h)/20° C. (12 h), are treated at the 1-leaf stage (10 cm tall) by spraying with the active ingredient prepared as described above.
(§5) Plants, used as controls, are treated with an aqueous solution not containing the active material.
After 24 hours, the plants are contaminated by spraying them with an aqueous suspension of Pyrenophora teres spores (12.000 spores per ml). The spores are collected from a 12-day-old culture.
The contaminated barley plants are incubated for 24 hours at about 20° C. and at 100% relative humidity, and then for 12 days at 80% relative humidity.
Grading is carried out 12 days after the contamination, in comparison with the control plants.
Under these conditions, good (at least 70%) is observed at a dose of 500 ppm with the following compounds: […]

[11] = system: Puccinia recondita; test: In vivo test on Puccinia recondita (brown rust); details: wheat plants, spray, 500 ppm, grading 10 days after contamination
In short: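 Wheat (Scipion) at the 1-leaf stage sprayed with compound suspension (acetone/tween/DMSO diluted in water), then inoculated 24 h later with Puccinia recondita spores at 100.000 spores per ml. Plants were held 24 h at 20 °C/100% RH, then 10 days at 20 °C/70% RH; protection graded 10 days post-inoculation versus untreated controls.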

[12] = system: Uromyces appendiculatus; test: In vivo test on Uromyces appendiculatus (brown rust of bean); details: Saxa variety plants, spray, 500 ppm, grading 10 days after contamination
Description: as §3
Wheat plants (Saxa variety) sown on 50/50 peat soil-pozzolana substrate in starter cups and grown at 24° C., are treated at the 2-leaf stage (9 cm tall) by spraying with the aqueous suspension described above.
as §5
After 24 hours, the plants are contaminated by spraying the leaves with an aqueous suspension of Uromyces appendiculatus spores (150.000 spores per ml). The spores are collected from a 10-day-old contaminated […] and are suspended in water containing 2.5 ml/l of tween 80 10%. The contaminated […] are incubated for 24 hours at 20° C. and at 100% relative humidity, and then for 10 days at 20° C. and at 70% relative humidity. Grading is carried out 10 days after the contamination, in comparison with the control plants.
as §4

[13] = system: Pyricularia grisea; type: in vivo; details: rice plants, spray, 500 ppm, grading 6 days after contamination
[14] = system: Mycosphaerella graminicola; test: In vivo test on Mycosphaerella graminicola (wheat leaf spot); details: wheat plants, spray, 500 ppm, grading 21 to 28 days after contamination
In short: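 Scipion wheat at 1-leaf stage was sprayed with compound suspension (acetone/tween/DMSO diluted in water), then inoculated 24 h later with spores (500.000/ml). Plants were held 72 h at 18° C and 100% RH, then 21 to 28 days at 90% RH. Efficacy was graded as % versus untreated controls.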

SMILES	Eff. % [2]	LogP [6]	Eff. % [7]	Eff. % [13]	other results
CCCCCOC(=O)Nc1cccc(CO/N=C(/c2ccccc2)c2noc(=O)n2C)n1 [Example 2]	97%	4.44 [a]			Eff. % [1]: 100%; Eff. % [3]: 98%; Eff. % [4]: 89%; Eff. % [5]: 100%
Cn1c(/C(=N\OCc2cccc(NC(=O)CCCCl)n2)c2ccccc2)noc1=O [Example 34]		3.27 [a]	99%		Eff. % [8]: 100%
Cn1c(/C(=N\OCc2cccc(NC(=O)C3CC3)n2)c2ccccc2)noc1=O [Example 35]		2.92 [a]			Eff. % [9]: 71%; Eff. % [10]: 100%
CCCCCOC(=O)Nc1cccc(CO/N=C(/c2cccc(OC)c2)c2noc(=O)n2C)n1 [Example 36]		4.46 [a]	85%		Eff. % [9]: 86%; Eff. % [10]: 71%; Eff. % [11]: 75%
C#CCC(C)(C)OC(=O)Nc1cccc(CO/N=C(/c2ccccc2)c2noc(=O)n2C)n1 [Example 39]	97%	3.94 [a]	100%		Eff. % [12]: 81%; Eff. % [11]: 98%; Eff. % [8]: 83%
Cn1c(/C(=N\OCc2cccc(NC(=O)c3cccc(F)c3)n2)c2cccc(F)c2)noc1=O [Example 42]		3.79 [a]	92%	71%	
Cn1c(/C(=N\OCc2cccc(NC(=O)CCCC[n+]3ccccc3)n2)c2ccccc2)noc1=O.O=C[O-] [Example 67]		1.67 [a]	89%		Eff. % [9]: 80%; Eff. % [14]: 90%; Eff. % [11]: 98%
CC(C)CCCC(=O)Nc1cccc(CO/N=C(/c2ccccc2)c2noc(=O)n2C)n1 [Example 95]	100%	4.25 [a]	100%	70%	
C=CCOC(=O)Nc1cccc(CO/N=C(/c2ccccc2)c2noc(=O)n2C)n1 [Example 109]		3.42 [a]	93%	70%	
CCCCCC(=O)Nc1cccc(CO/N=C(/c2ccccc2)c2noc(=O)n2C)n1 [Example 111]	100%	3.89 [a]	100%		Eff. % [1]: 95%; Eff. % [12]: 72%; Eff. % [14]: 100%; Eff. % [8]: 70%
C=CCCCCC(=O)Nc1cccc(CO/N=C(/c2ccccc2)c2noc(=O)n2C)n1 [Example 167]	86%	3.89 [a]	98%	96%	
COc1ccccc1OCC(=O)Nc1nc(CO/N=C(/c2ccccc2)c2noc(=O)n2C)cs1 [Example 171]		3.55 [a]	100%	80%	Eff. % [12]: 82%
Cc1ccc(C(=O)Nc2nc(CO/N=C(/c3ccccc3)c3noc(=O)n3C)cs2)cc1 [Example 180]	95%	3.76 [a]	98%		Eff. % [9]: 83%
Cn1c(/C(=N\OCc2cccc(NC(=O)C3OCCc4ccccc43)n2)c2ccccc2)noc1=O (stereo not drawn) [Example 227]		4.1 [a]	100%	96%	
Cn1c(C(=NOCc2csc(NC(=O)c3ccc(Cl)cc3Cl)n2)c2ccccc2)noc1=O [Example 262]		3.94 [a]	78%		Eff. % [8]: 83%
CCCOC(=O)Nc1nc(CON=C(c2ccccc2)c2noc(=O)n2C)cs1 [Example 265]		3.35 [a]	93%	70%	
CCCC(C)OC(=O)Nc1cccc(CO/N=C(/c2ccccc2)c2noc(=O)n2C)n1 (stereo not drawn) [Example 282]	96%	4.36 [a]	98%		Eff. % [1]: 92%; Eff. % [3]: 100%; Eff. % [5]: 90%
Cn1c(/C(=N\OCc2cccc(NC(=O)OC(CCl)CCl)n2)c2ccccc2)noc1=O [Example 306]		3.83 [a]	100%	90%	
Cc1ccc(/C(=N/OCc2csc(N)n2)c2noc(=O)[nH]2)cc1 [Example 308]		1.84 [a]	89%		Eff. % [14]: 100%; Eff. % [11]: 94%; Eff. % [8]: 90%
Cn1c(/C(=N\OCc2cccc(NC(=O)c3ccc(F)cc3)n2)c2ccccc2)noc1=O [Example 364]	100%	3.62 [a]	98%		Eff. % [8]: 92%
Cn1c(/C(=N\OCc2csc(NC(=O)c3ccc(Br)cc3)n2)c2ccccc2)noc1=O [Example 373]		4.01 [a]	97%		Eff. % [9]: 85%

From US9090600B2, “Fungicidal 4-substituted-3-{phenyl[(heterocyclylmethoxy)imino]methyl}-1,2,4-oxadizol-5(4H)-one derivatives” (BAYER INTELLECTUAL PROPERTY GMBH, priority 2011, dated 2015)
